Reference: PMC9409361, “EsigGOBP1: The Key Protein Binding Alpha-Phellandrene in Endoclita signifer Larvae” (International Journal of Molecular Sciences, 2022)
“Also recorded” adds a separate entry of the source. Read-outs that look alike come from different tables or passages of the source.

Assays:
[1] = system: recombinant EsigGOBP1; experiment: Fluorescence competition binding assay (FCBA) with 1-NPN probe; design: species or system Endoclita signifer; conditions: for binding affinities for EsigGOBP1 (in words): FCBA, ordered by Kd values; for Ki: calculated from IC50: Ki = [IC50]/(1 + [1-NPN]/K1-NPN); for IC50: competitive binding, 1-NPN and EsigGOBP1 both at 2 μM, ligands 2–24 μM, pH 7.4
Protocol: N-phenyl-1-naphthylamine (1-NPN) was selected for use as a selectively fluorescent probe to measure the affinity of ligand binding to recombinant EsigGOBP1 [20, 42]. Twelve volatiles (Table 1) from eucalyptus trunks and humus soil under eucalyptus plantation were collected, identified and screened using the dynamic headspace adsorption method, gas chromatograph coupled to mass selective detector, gas chromatograph electroantennal detection and Y-tube olfactometer bioassay (Table S1). […] A 2 μM solution of EsigGOBP1 was prepared in 20 mM Tris-HCl buffer (pH 7.4), and the ligands were dissolved in chromatographically pure methanol as 1 mM stock solutions. […] Intensity values corresponding to maximum fluorescence emission were plotted against free ligand concentrations to determine dissociation constants. K1-NPN values were calculated by Scatchard plots to linearize curves.

[2] = system: EsigGOBP1 expression in the head of E. signifer larvae; experiment: qRT-PCR expression of EsigGOBP1 in larval heads after exposure to volatiles; type: in vivo, Endoclita signifer
Protocol: The 3rd and 5th instar larvae of E. signifer were exposed to 12 GC-EAD active volatile compounds (Table S1). The exposure method followed that of Llopis-Gimenez and Hu. Thirty-three 5th instar larvae were exposed to ten compounds and only methanol (control) with three biological replicates (50 μL of each odorant diluted to 10 g/L in methanol in a 50 mL jar for 24 h). Thereafter, the total RNA from the heads of these larvae were extracted and its concentration and purity measured. The residual genomic DNA in the total RNA was removed using DNase I (Thermo Scientific, Waltham, MA, USA) then purified RNA used to synthesize cDNA following the method of Zhang. The treatments carried out on the 5th instar larvae, were the same as applied to 3rd instar larvae (n = 27) (eight compounds, one control; three biological replicates). The sequence of the gene-specific primers of EsigGOBP1 were as follow: forward primer: 5′-[…]-3′; reverse primer: 5′-[…] TCTCGT-3′ [37]. Roche LIGHT CYCLE 480II (USA) and Genious 2X SYBR Green Fast qPCR Mix (No ROX) (No. RK21205; ABclonal, Wuhan, China) were used for a PCR reaction under a three-step amplification program. Each 20 µL real-time fluorescence quantification PCR (qRT-PCR) reaction mixture contained 10 µL of Genious 2X SYBR Green Fast qPCR Mix, […] ([…]), 2 µL of sample cDNA (2.5 ng of RNA), and […] of dH2O (sterile distilled water), with the following cycling parameters: 95 °C for 180 s, followed by 40 cycles of 95 °C for 5 s, 60 °C for 30 s, and 65 °C to 95 °C in increments of 0.5 °C for 5 s to generate melting curves. The sequences of the primers of the reference gene, GADPH were forward primer 5′-[…]-3′; reverse primer 5′-[…]-3′ [60]. The measurement of the expression of EsigGOBP1 in head, thorax and abdomen of 3rd instar larvae followed the protocol of Zhang. Each qRT-PCR reaction for each volatile exposure and tissues, was performed in three biological replicates and three technical replicates in Roche LIGHT CYCLE 480II. The expression of EsigGOBP1, from exposure to o-cymene and camphene served as the control for the 3rd and 5th instar larvae, respectively, and GADPH was used to measure the relative gene expressions by the 2^−ΔΔCT method. The 2^−ΔCT method was used to measure gene expressions in the tissues of 3rd instar larvae with 0.91 amplicons efficiencies. Differences in the expression of olfactory proteins were determined using a one-sample t-test. All analyses were implemented in SPSS Statistics 18.0, and values are presented as means ± SE.

[3] = system: E. signifer larvae; conditions: cited from earlier work; for influence on the behaviour of E. signifier: ref [35],[36]; for attraction in behavior choice assays: ref [33],[34]
[4] = competitive binding against 1-NPN, read-out: calculated Kd
[5] = 3rd instar larvae, 24 h exposure to volatile
[6] = 5th instar larvae, 24 h exposure to volatile

binding affinities for EsigGOBP1 (in words) [1] | Ki [1] | Kd [1, 4] | IC50 [1] | SMILES | EsigGOBP1 expression vs control [2, 5] | other results
– | – | – | – | c1ccc(Nc2cccc3ccccc23)cc1 [1-NPN, N-phenyl-1-naphthylamine, reference compound] | – | Kd ([1]; binding curve and Scatchard plots, 1-NPN 2–24 μM, 2 μM EsigGOBP1, read-out: dissociation constant K1-NPN): 3.38 µM
– | – | – | – | CC1=CCC2C(C1)C2(C)C (centres unmarked) [3-carene] | downregulated; also recorded: extremely significantly lower | –
– | – | – | – | CCc1ccc(C(C)=O)cc1 [4-ethylacetophenone] | downregulated; also recorded: extremely significantly lower | –
high binding affinities | 0.792 µM | 0.79 µM | 6.3 µM | CCc1ccccc1CC [Benzene, 1,2-diethyl-] | – | influence on the behaviour of E. signifier [3]: no obvious influence; EsigGOBP1 expression vs control ([2]; 5th instar larvae, 24 h exposure to volatile, 1,2-diethyl-): upregulated
high binding affinities | – | 0.99 µM | 7.87 µM | C=C1C2CCC(C2)C1(C)C (centres unmarked) [Camphene] | – | –
high binding affinities | 1.43 µM | 1.43 µM | 11.4 µM | C=C(C)[C@H]1CC=C(C)CC1 [D-limonene] | – | –
low binding affinities | 2.69 µM | 2.69 µM | 21.5 µM | c1ccc2ccccc2c1 [Naphthalene] | upregulated | –
high binding affinities | 0.889 µM | 0.89 µM | 7.08 µM | CC1=CC[C@H](C(C)C)C=C1 [alpha-Phellandrene] | downregulated; also recorded: extremely significantly lower | influence on the behaviour of E. signifier [3]: no obvious influence
high binding affinities | 1.24 µM | 1.24 µM | 9.86 µM | CC1=CCC2CC1C2(C)C (stereo not drawn) [alpha-Pinene] | – | –
– | – | – | – | CCc1ccccc1C [benzene, 1-ethyl-2-methyl-] | – | EsigGOBP1 expression vs control [2, 6]: upregulated
– | – | – | – | Cc1ccccc1C(C)C [o-cymene] | downregulated; also recorded: extremely significantly lower | attraction in behavior choice assays ([3]; 3rd instar larvae): significantly attracted; EsigGOBP1 expression vs control [2, 6]: upregulated
high binding affinities | 1.32 µM | 1.32 µM | 10.5 µM | C=C1CCC2CC1C2(C)C (stereo not drawn) [β-Pinene] | – | attraction in behavior choice assays ([3]; 5th instar larvae): significantly attracted; EsigGOBP1 expression vs control [2, 6]: downregulated; EsigGOBP1 expression vs control ([2]; 5th instar larvae, 24 h exposure to volatile, listed as β-pinene): extremely significantly lower

SMILES | binding affinities for EsigGOBP1 (in words) [1] | Ki [1] | Kd [1, 4] | IC50 [1] | EsigGOBP1 expression vs control [2, 5] | other results
Cc1cc(C)cc(C)c1 [1,3,5-trimethyl-benzen] | low binding affinities | 4.6 µM | 4.6 µM | – | – | –
CC(C)(O)c1ccccc1 [2-Phenyl-2-propanol] | low binding affinities | 2.77 µM | 2.77 µM | 22 µM | – | –
C=CC(=O)OCCCC [Butyl acrylate] | high binding affinities | 0.901 µM | 0.9 µM | 7.18 µM | – | –
CC12CCC(CC1)C(C)(C)O2 [Eucalyptol] | high binding affinities | 1.27 µM | 1.27 µM | 10.1 µM | downregulated; also recorded: significantly lower | EsigGOBP1 expression vs control [2, 6]: downregulated; also recorded: significantly lower
